The structures appear in SMILES notation.

The IC50 is the concentration needed to halve the response being measured.

The experiment deals with T1, α4β1 integrin (Homo sapiens, UniProt P05556+P13612).
T1 construct: a cell line Jurkat, which is known to express α4β1 integrin; endogenous in cells; host or cells: Jurkat (human T cell line)
T1 sequence (P13612 34-1032): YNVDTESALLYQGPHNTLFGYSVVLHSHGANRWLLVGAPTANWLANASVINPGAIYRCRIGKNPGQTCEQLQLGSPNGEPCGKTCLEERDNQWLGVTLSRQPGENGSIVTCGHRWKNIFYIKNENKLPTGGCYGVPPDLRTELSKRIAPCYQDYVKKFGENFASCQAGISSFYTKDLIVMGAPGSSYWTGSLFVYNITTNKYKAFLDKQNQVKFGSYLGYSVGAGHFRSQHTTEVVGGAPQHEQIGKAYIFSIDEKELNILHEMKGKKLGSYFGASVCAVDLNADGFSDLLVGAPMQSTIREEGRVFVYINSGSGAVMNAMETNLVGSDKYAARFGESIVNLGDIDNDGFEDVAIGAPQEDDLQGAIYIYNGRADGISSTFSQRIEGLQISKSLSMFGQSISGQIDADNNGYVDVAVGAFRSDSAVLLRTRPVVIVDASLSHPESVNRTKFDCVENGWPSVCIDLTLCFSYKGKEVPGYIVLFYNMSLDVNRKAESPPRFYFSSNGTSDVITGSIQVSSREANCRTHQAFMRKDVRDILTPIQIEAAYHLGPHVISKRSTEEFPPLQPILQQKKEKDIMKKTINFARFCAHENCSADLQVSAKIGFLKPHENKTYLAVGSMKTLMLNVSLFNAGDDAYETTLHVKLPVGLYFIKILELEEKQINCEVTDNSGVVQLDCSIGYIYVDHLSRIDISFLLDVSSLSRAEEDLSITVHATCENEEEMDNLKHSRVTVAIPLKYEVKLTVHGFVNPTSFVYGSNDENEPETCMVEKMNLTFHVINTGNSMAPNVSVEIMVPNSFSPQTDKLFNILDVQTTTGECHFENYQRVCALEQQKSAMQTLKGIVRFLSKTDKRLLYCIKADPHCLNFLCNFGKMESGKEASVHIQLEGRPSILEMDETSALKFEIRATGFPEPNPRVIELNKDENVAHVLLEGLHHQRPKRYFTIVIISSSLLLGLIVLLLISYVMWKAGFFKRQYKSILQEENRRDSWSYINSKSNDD
T1 sequence (P05556 21-798): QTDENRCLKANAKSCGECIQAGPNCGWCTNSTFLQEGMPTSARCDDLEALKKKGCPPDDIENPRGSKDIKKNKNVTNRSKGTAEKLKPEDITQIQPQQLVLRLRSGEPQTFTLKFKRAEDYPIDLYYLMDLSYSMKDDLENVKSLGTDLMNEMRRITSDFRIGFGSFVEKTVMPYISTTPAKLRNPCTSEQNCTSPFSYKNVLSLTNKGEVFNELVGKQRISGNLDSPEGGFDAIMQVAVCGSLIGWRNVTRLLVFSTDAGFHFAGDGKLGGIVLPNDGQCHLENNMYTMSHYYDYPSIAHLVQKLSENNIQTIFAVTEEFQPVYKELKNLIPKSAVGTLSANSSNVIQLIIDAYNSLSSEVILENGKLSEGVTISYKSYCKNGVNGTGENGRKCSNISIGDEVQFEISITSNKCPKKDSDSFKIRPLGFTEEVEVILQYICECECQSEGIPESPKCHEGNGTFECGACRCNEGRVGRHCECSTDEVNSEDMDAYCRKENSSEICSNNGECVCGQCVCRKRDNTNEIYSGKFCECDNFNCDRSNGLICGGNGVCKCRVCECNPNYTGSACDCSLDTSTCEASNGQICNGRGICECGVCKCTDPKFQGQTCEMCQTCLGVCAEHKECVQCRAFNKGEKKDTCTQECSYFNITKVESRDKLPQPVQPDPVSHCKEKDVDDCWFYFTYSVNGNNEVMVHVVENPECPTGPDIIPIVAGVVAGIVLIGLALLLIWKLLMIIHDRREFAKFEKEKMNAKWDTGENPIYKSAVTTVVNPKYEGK
Description: VCAM-1/α4β1 integrin binding inhibitory activity evaluation test (Jurkat cells binding to VCAM-1/Fc). The experiment is classed as cell-based. As to conditions: recombinant human VCAM-1/Fc. The procedure:
(1) VCAM-1/α4β1 Integrin Binding Inhibitory Activity Evaluation Test
Each test substance was measured in terms of an ability to inhibit the VCAM-1 binding of a human T cell line, namely, a cell line Jurkat, which is known to express α4β1 integrin.
A solution of recombinant human VCAM-1/Fc (R&D Systems, Inc.) (1 μg/mL) diluted with a buffer A (carbonate buffer, pH 9.6) was placed in an amount of 50 μL/well in a 96-well microtiter plate, followed by incubation at 4° C. overnight. After the plate was washed with PBS once, 150 μL/well of Block Ace (Snow Brand Milk Products Co., Ltd.) was added, followed by incubation at room temperature for 2 hours. After removal, the plate was washed with PBS once.
Then, 100 μL of the Jurkat cells (2×10^6 cells/mL) and 100 μL of the test substance at each of various concentrations diluted with a binding buffer (DMEM containing 40 mM HEPES, 0.2% BSA, and 4 mM MnCl2) were added to the plate coated with the VCAM-1/Fc (5×10^5 cells/well), followed by incubation at 30° C. for 15 to 60 minutes. After the cells were bound to the wells, the plate was washed with PBS to remove unbound cells. A buffer C (PBS containing 1.5% Triton X-100) was added in an amount 50 μL/well to the plate to lyse the bound Jurkat cells. After 30 μL of a substrate buffer (Promega, CytoTox 96 Non-Radioactive Cytotoxicity Assay) was added to 30 μL of the cell lysate, a reaction was allowed to proceed at room temperature in the dark for 30 minutes. After 30 μL of a stop solution (Promega, CytoTox 96 Non-Radioactive Cytotoxicity Assay) was added to each, and then an absorbance at 490 nm was measured using a plate reader. The absorbance obtained here represents a detection result of an activity of lactate dehydrogenase (LDH) eluted in the supernatant of each well, that is, the absorbance is proportional to the number of Jurkat cells bound to the VCAM-1 and thus remaining on the plate. The test was performed in duplicate. Provided that the absorbance of a well containing no test substance was 100%, a cell binding rate with the test substance at each of the various concentrations was figured out, and a concentration IC50 which brought about 50% binding inhibition was calculated.
Take `Cc1c(C)n(C)c(=O)n(-c2ccc(C[C@H](NC(=O)c3cc(F)c(NS(=O)(=O)c4ccc(NC(=O)C(C)(C)C)nc4)cc3F)C(=O)O)cc2)c1=O` [Compound A25]: the IC50 was 2.3 µM.
For the molecule `Cn1c2c(c(=O)n(-c3ccc(C[C@H](NC(=O)c4cc(F)c(NS(=O)(=O)c5ccc(NC(=O)C(C)(C)C)cc5)cc4F)C(=O)O)cn3)c1=O)COCC2` [Compound A44], the IC50 was 3.4 µM.
With `Cn1c2c(c(=O)n(-c3ccc(C[C@H](NC(=O)c4cc(F)c(NS(=O)(=O)c5ccc(NC(=O)C(C)(C)C)cc5)cc4F)C(=O)O)cc3)c1=O)CCOC2` [Compound A27], the IC50 was determined as 0.91 µM.
Regarding `Cc1cn(C)c(=O)n(-c2ccc(C[C@H](NC(=O)c3cc(F)c(NS(=O)(=O)c4ccc(NC(=O)C(C)(C)C(F)(F)F)cc4)cc3F)C(=O)O)cn2)c1=O` [Compound A58], the IC50 worked out at 14 µM.
Regarding `Cn1cc(C(F)(F)F)c(=O)n(-c2ccc(C[C@H](NC(=O)c3cc(F)c(NS(=O)(=O)c4ccc(NC(=O)C(C)(C)C)cc4)cc3F)C(=O)O)cn2)c1=O` [Compound A67], the IC50 amounted to 19 µM.
Turning to `Cn1c2c(c(=O)n(-c3ccc(C[C@H](NC(=O)c4cc(F)c(NS(=O)(=O)c5ccc(NC(=O)C(C)(C)C)cc5)cc4F)C(=O)O)cn3)c1=O)CCCC2` [Compound A52], the IC50 was 2.2 µM.
As for `Cn1ccc(=O)n(-c2ccc(C[C@H](NC(=O)c3cc(F)c(NS(=O)(=O)c4ccc(NC(=O)C5(C#N)CC5)cc4)cc3F)C(=O)O)cn2)c1=O` [Compound A59], the IC50 is over 31.2 µM.
As for `Cn1ccc(=O)n(-c2ccc(C[C@H](NC(=O)c3cc(F)c(NS(=O)(=O)c4ccc(NC(=O)C(C)(C)C(F)(F)F)cc4)cc3F)C(=O)O)cn2)c1=O` [Compound A57], the IC50 worked out at 25 µM.
Turning to `Cc1c(C)n(C)c(=O)n(-c2ccc(C[C@H](NC(=O)c3cc(F)c(NS(=O)(=O)c4ccc(NC(=O)C(C)(C)C)cn4)cc3F)C(=O)O)cn2)c1=O` [Compound A32], the IC50 was 4.4 µM.
Consider `Cn1c(=O)n(-c2ccc(C[C@H](NC(=O)c3cc(F)c(NS(=O)(=O)c4ccc(NC(=O)NC(C)(C)C)cc4)cc3F)C(=O)O)cc2)c(=O)c2ccncc21` [Compound A5], for which the IC50 turned out to be 2 µM.
In the case of `Cn1c(=O)n(-c2ccc(C[C@H](NC(=O)c3cc(F)c(NS(=O)(=O)c4ccc(NC(=O)C(C)(C)C)cc4)cc3F)C(=O)O)cc2)c(=O)c2ccncc21` [Compound A1, (2S)-2-[[4-[[4-(2,2-dimethylpropanoylamino)phenyl]sulfonylamino]-2,5-difluoro-benzoyl]amino]-3-[4-(1-methyl-2,4-dioxo-pyrido[3,4-d]pyrimidin-3-yl)phenyl]propanoic acid], the IC50 stood at 0.44 µM.
On to `Cn1c2c(c(=O)n(-c3ccc(C[C@H](NC(=O)c4cc(F)c(NS(=O)(=O)c5ccc(NC(=O)C(C)(C)C)cc5)cc4F)C(=O)O)nc3)c1=O)CCCC2` [Compound A47], for which the IC50 amounted to 4.1 µM.
On to `Cc1cn(C)c(=O)n(-c2ccc(C[C@H](NC(=O)c3cc(F)c(NS(=O)(=O)c4ccc(NC(=O)C(C)(C)C)cc4)cc3F)C(=O)O)cn2)c1=O` [Compound A54], for which the IC50 was determined as 29 µM.
In the case of `Cc1cn(C)c(=O)n(-c2ccc(C[C@H](NC(=O)c3cc(F)c(NS(=O)(=O)c4ccc(NC(=O)C(C)(C)C)s4)cc3F)C(=O)O)cn2)c1=O` [Compound A73], the IC50 stood at 21 µM.
As for `Cc1cn(C)c(=O)n(-c2ccc(C[C@H](NC(=O)c3cc(F)c(NS(=O)(=O)c4ccc(NC(=O)C(C)(C)C)cc4)cc3F)C(=O)O)nc2)c1=O` [Compound A69], the IC50 was 13 µM.
For the molecule `Cn1c(=O)n(-c2ccc(C[C@H](NC(=O)c3cc(F)c(NS(=O)(=O)c4ccc(NC(=O)C(C)(C)C)cc4)cc3F)C(=O)O)cn2)c(=O)c2ccncc21` [Compound A26], the IC50 was found to be 4.6 µM.
With `Cn1c(=O)n(-c2ccc(C[C@H](NC(=O)c3cc(F)c(NS(=O)(=O)c4ccc(NC(=O)C5(C(F)(F)F)CC5)cc4)cc3F)C(=O)O)cc2)c(=O)c2ccncc21` [Compound A24], the IC50 is 1.4 µM.
Regarding `Cc1c(C)n(C)c(=O)n(-c2ccc(C[C@H](NC(=O)c3cc(F)c(NS(=O)(=O)c4ccc(NC(=O)C(C)(C)C)s4)cc3F)C(=O)O)cc2)c1=O` [Compound A10], the IC50 is 0.4 µM.
In the case of `Cn1c2c(c(=O)n(-c3ccc(C[C@H](NC(=O)c4cc(F)c(NS(=O)(=O)c5ccc(NC(=O)C(C)(C)C)cc5)cc4F)C(=O)O)cc3)c1=O)COCC2` [Compound A33], the IC50 was 1 µM.
As for `Cn1c(=O)n(-c2ccc(C[C@H](NC(=O)c3cc(F)c(NS(=O)(=O)c4ccc(NC(=O)C(C)(C)C)c(F)c4)cc3F)C(=O)O)cc2)c(=O)c2ccncc21` [Compound A12], the IC50 came to 1.2 µM.
On to `Cc1c(C)n(C)c(=O)n(-c2ccc(C[C@H](NC(=O)c3cc(F)c(NS(=O)(=O)c4ccc(NC(=O)C(C)(C)C)cn4)cc3F)C(=O)O)cc2)c1=O` [Compound A19], for which the IC50 came to 0.37 µM.
For `Cn1ccc(=O)n(-c2ccc(C[C@H](NC(=O)c3cc(F)c(NS(=O)(=O)c4ccc(NC(=O)C5(C(F)(F)F)CC5)cc4)cc3F)C(=O)O)cn2)c1=O` [Compound A55], the IC50 is over 31.2 µM.
For `Cn1ccc(=O)n(-c2ccc(C[C@H](NC(=O)c3cc(F)c(NS(=O)(=O)c4ccc(NC(=O)C(C)(C)C)cc4)cc3F)C(=O)O)nc2)c1=O` [Compound A70], the IC50 was found to be 38 µM.
`Cc1c(C)n(C)c(=O)n(-c2ccc(C[C@H](NC(=O)c3cc(F)c(NS(=O)(=O)c4ccc(NC(=O)C5CCOCC5)cc4)cc3F)C(=O)O)cc2)c1=O` [Compound A15]: the IC50 amounted to 0.95 µM.
As for `Cc1c(C)n(C)c(=O)n(-c2ccc(C[C@H](NC(=O)c3cc(F)c(NS(=O)(=O)c4cccc(NC(=O)C(C)(C)C)c4)cc3F)C(=O)O)cc2)c1=O` [Compound A49], the figure is 1.8 µM; as for `Cn1ccc(=O)n(-c2ccc(C[C@H](NC(=O)c3cc(F)c(NS(=O)(=O)c4ccc(NC(=O)C(C)(C)C)cc4)cc3F)C(=O)O)cn2)c1=O` [Compound A53], over 31.2 µM; as for `Cn1c(=O)n(-c2ccc(C[C@H](NC(=O)c3cc(F)c(NS(=O)(=O)c4ccc(NC(=O)c5ccncc5)cc4)cc3F)C(=O)O)cc2)c(=O)c2ccncc21` [Compound A7], 2 µM.
`Cn1c(=O)n(-c2ccc(C[C@H](NC(=O)c3cc(F)c(NS(=O)(=O)c4ccc(NC(=O)C5CCOCC5)cc4)cc3F)C(=O)O)cc2)c(=O)c2ccncc21` [Compound A14]: the IC50 turned out to be 0.55 µM.
With `Cc1cn(C)c(=O)n(-c2ccc(C[C@H](NC(=O)c3cc(F)c(NS(=O)(=O)c4ccc(NC(=O)C(C)(C)CO)cc4)cc3F)C(=O)O)cn2)c1=O` [Compound A63], the IC50 was over 31.2 µM.
On to `Cc1c(C)n(C(C)C)c(=O)n(-c2ccc(C[C@H](NC(=O)c3cc(F)c(NS(=O)(=O)c4ccc(NC(=O)C(C)(C)C)cc4)cc3F)C(=O)O)cc2)c1=O` [Compound A48], for which the IC50 came out at 11 µM.
Take `Cc1c(C)n(C)c(=O)n(-c2ccc(C[C@H](NC(=O)c3cc(F)c(NS(=O)(=O)c4ccc(NC(=O)C(C)(C)C)cc4)cc3F)C(=O)O)cn2)c1=O` [Compound A28]: the IC50 came to 3.6 µM.
Take `Cn1ccc(=O)n(-c2ccc(C[C@H](NC(=O)c3cc(F)c(NS(=O)(=O)c4ccc(NC(=O)C(C)(C)C)cc4)cc3F)C(=O)O)cc2)c1=O` [Compound A42]: the IC50 came out at 2.5 µM.
Consider `Cc1cn(C)c(=O)n(-c2ccc(C[C@H](NC(=O)c3cc(F)c(NS(=O)(=O)c4ccc(NC(=O)C(C)C)cc4)cc3F)C(=O)O)cn2)c1=O` [Compound A71], for which the 50% inhibitory concentration (IC50) is 15 µM.
With `Cc1c(C)n(C)c(=O)n(-c2ccc(C[C@H](NC(=O)c3cc(F)c(NS(=O)(=O)c4ccc(NC(=O)C5(c6ccccc6)CC5)cc4)cc3F)C(=O)O)cc2)c1=O` [Compound A30], the IC50 stood at 2.7 µM.
As to `Cc1cn(C)c(=O)n(-c2ccc(C[C@H](NC(=O)c3cc(F)c(NS(=O)(=O)c4ccc(NC(=O)C5(C#N)CC5)cc4)cc3F)C(=O)O)cn2)c1=O` [Compound A60], the IC50 turned out to be 12 µM.
As for `Cc1cn(C)c(=O)n(-c2ccc(C[C@H](NC(=O)c3cc(F)c(NS(=O)(=O)c4ccc(NC(=O)C(C)(C)C)cc4)cc3F)C(=O)O)cc2)c1=O` [Compound A37], the figure is 4.1 µM.
For the molecule `Cn1c(=O)n(-c2ccc(C[C@H](NC(=O)c3cc(F)c(NS(=O)(=O)c4ccc(NC(=O)C5(O)CC5)cc4)cc3F)C(=O)O)cc2)c(=O)c2ccncc21` [Compound A23], the IC50 was 0.82 µM.
Take `Cn1c(C(F)(F)F)cc(=O)n(-c2ccc(C[C@H](NC(=O)c3cc(F)c(NS(=O)(=O)c4ccc(NC(=O)C(C)(C)C)cc4)cc3F)C(=O)O)cn2)c1=O` [Compound A66]: the IC50 amounted to 19 µM.
As for `Cn1c(=O)n(-c2ccc(C[C@H](NC(=O)c3cc(F)c(NS(=O)(=O)c4ccc(NC(=O)C5(c6ccccc6)CC5)cc4)cc3F)C(=O)O)cn2)c(=O)c2ccncc21` [Compound A29], the IC50 amounted to 12 µM.

The values above are taken from US10562898B2, “Substituted benzenesulfonamides as inhibitors of alpha-4 beta-7 integrin activity” (EA PHARMA CO., LTD., priority 2016, dated 2020).
